{"source": "paper PMC3553074", "about": "(PLoS ONE, 2013)", "key": {"Ft-MglA [1]": {"molecular_target": "T1, Ft-MglA (Francisella tularensis, UniProt Q5NFG1)", "experiment": "biochemical", "details": "read-out: ΔTm (°C) ^1"}, "E. coli": {"system": "E. coli", "experiment": "microbe, parasite or virus in culture", "details": "Escherichia coli, read-out: E. coli MIC (mM)"}, "Ec-SspA [2]": {"molecular_target": "T2, Ec-SspA (Escherichia coli, UniProt P0ACA3)", "T2 construct": "His-tagged from pCA24N-sspA (ASKA library clone), expressed in E. coli", "T2 sequence (P0ACA3 2-212)": "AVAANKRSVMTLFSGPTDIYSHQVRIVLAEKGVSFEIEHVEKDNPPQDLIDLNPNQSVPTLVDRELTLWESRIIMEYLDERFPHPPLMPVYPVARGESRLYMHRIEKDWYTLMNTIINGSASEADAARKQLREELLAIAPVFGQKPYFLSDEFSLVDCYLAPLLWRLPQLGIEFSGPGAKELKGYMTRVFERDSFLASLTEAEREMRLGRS", "experiment": "biochemical"}, "Ec-SspA [3]": {"molecular_target": "T2, Ec-SspA", "experiment": "biochemical", "set-up": "differential scanning fluorometry with SYPRO Orange, shift of midpoint transition temperature of purified protein"}, "Ft-MglA [4]": {"molecular_target": "T1, Ft-MglA", "experiment": "biochemical"}, "[5]": {"molecular_target": "F. tularensis SCHU S4 SspA fused to the zinc finger DNA binding domain of murine Zif268 (pACTR-sspA-Zif) (F. tularensis SCHU S4)", "experiment": "two-hybrid"}, "[6]": {"details": "read-out: ΔTm (°C) ^1 / Ec-SspA"}, "[7]": {"details": "read-out: ΔTm (°C) ^1 / Ft-MglA"}}, "note": "Counter-ions that a name gives are not always drawn. Like-named read-outs stand apart in the source and are kept apart here."}
{"molecule": "COC(=O)C1=CCCN(C)C1", "note": "[Arecoline hydrobromide]", "values": [{"measurement": "ΔTm at 40 µM", "setting": "Ft-MglA [1]", "value": "2.8 ± 0.1", "unit": "°C"}, {"measurement": "MIC", "setting": "E. coli", "value": 0.1, "unit": "mM"}]}
{"molecule": "CCc1oc2ccccc2c1C(=O)c1cc(Br)c(O)c(Br)c1", "note": "[Benzbromarone]", "values": [{"measurement": "MIC", "setting": "E. coli", "value": 1, "unit": "mM"}, {"measurement": "ΔTm at 40 µM", "setting": "Ec-SspA [2]; read-out: ΔTm (°C) ^1", "value": "30 ± 1.6", "unit": "°C"}]}
{"molecule": "C[C@H](CS)C(=O)N1CCC[C@H]1C(=O)O", "note": "[Captopril]", "values": [{"measurement": "ΔTm at 40 µM", "setting": "Ec-SspA [3]; read-out: ΔTm (°C) ^1", "value": "9.2 ± 1.9", "unit": "°C"}, {"measurement": "MIC", "setting": "E. coli", "value": 1, "unit": "mM"}]}
{"molecule": "CCN(CC)C(=O)N1CCN(C)CC1", "note": "[Diethylcarbamazine citrate]", "values": [{"measurement": "ΔTm at 40 µM", "setting": "Ft-MglA [1]", "value": "2.1 ± 0.1", "unit": "°C"}, {"measurement": "MIC", "setting": "E. coli", "value": 1, "unit": "mM"}]}
{"molecule": "Cc1c(N(C)CS(=O)(=O)O)c(=O)n(-c2ccccc2)n1C", "note": "[Dipyrone]", "values": [{"measurement": "ΔTm at 40 µM", "setting": "Ec-SspA [3]; read-out: ΔTm (°C) ^1", "value": "8.9 ± 1.5", "unit": "°C"}, {"measurement": "MIC", "setting": "E. coli", "value": 1, "unit": "mM"}]}
{"molecule": "CC1CCc2cc(F)cc3c(=O)c(C(=O)O)cn1c23", "note": "(centres unmarked) [Flumequine]", "values": [{"measurement": "MIC", "setting": "E. coli", "value": 0.1, "unit": "mM"}, {"measurement": "ΔTm at 40 µM", "setting": "Ft-MglA [4]; read-out: ΔTm (°C) ^1", "value": "17.9 ± 2.4", "unit": "°C"}]}
{"molecule": "O=C(CCCN1CCC(O)(c2ccc(Cl)cc2)CC1)c1ccc(F)cc1", "note": "[Haloperidol]", "values": [{"measurement": "MIC", "setting": "E. coli", "value": 0.1, "unit": "mM"}]}
{"molecule": "Cc1ccc(Cl)c(Nc2ccccc2C(=O)O)c1Cl", "note": "[Meclofenamic acid]", "values": [{"measurement": "MIC", "setting": "E. coli", "value": 1, "unit": "mM"}, {"measurement": "ΔTm at 40 µM", "setting": "Ec-SspA [2]; read-out: ΔTm (°C) ^1", "value": "22.9 ± 4.1", "unit": "°C"}]}
{"molecule": "COc1ccc2cc(CCC(C)=O)ccc2c1", "note": "[Nabumetone]", "values": [{"measurement": "MIC", "setting": "E. coli", "value": 1, "unit": "mM"}, {"measurement": "ΔTm at 40 µM", "setting": "Ft-MglA [4]; read-out: ΔTm (°C) ^1", "value": "13.8 ± 0.1", "unit": "°C"}]}
{"molecule": "O=C(O)c1cc2ccccc2c(Cc2c(O)c(C(=O)O)cc3ccccc23)c1O", "note": "[Pamoic acid]", "values": [{"measurement": "MIC", "setting": "E. coli", "value": 0.25, "unit": "mM"}]}
{"molecule": "CCCOc1ccc(C(=O)OCCN(CC)CC)cc1N", "note": "[Proparacaine hydrochloride]", "values": [{"measurement": "ΔTm at 40 µM", "setting": "Ec-SspA [3]; [6]", "value": "27.9 ± 4.3", "unit": "°C"}, {"measurement": "MIC", "setting": "E. coli", "value": 0.5, "unit": "mM"}, {"measurement": "ΔTm at 40 µM", "setting": "Ft-MglA [4]; [7]", "value": "24.5 ± 4.4", "unit": "°C"}]}
{"molecule": "CC1=C(/C=C/C(C)=C/C=C/C(C)=C/C(=O)O)C(C)(C)CCC1", "note": "[Retinoic acid]", "values": [{"measurement": "MIC", "setting": "E. coli", "value": 0.5, "unit": "mM"}, {"measurement": "ΔTm at 40 µM", "setting": "Ec-SspA [2]; [6]", "value": "23.3 ± 3.2", "unit": "°C"}, {"measurement": "ΔTm at 40 µM", "setting": "Ft-MglA [4]; [7]", "value": "24.5 ± 3.9", "unit": "°C"}]}
{"molecule": "Cn1c(=O)c2nc[nH]c2n(C)c1=O", "note": "[Theophylline monohydrate]", "values": [{"measurement": "ΔTm at 40 µM", "setting": "Ft-MglA [1]", "value": "2.3 ± 0.1", "unit": "°C"}, {"measurement": "MIC", "setting": "E. coli", "value": 0.1, "unit": "mM"}]}
{"molecule": "Cc1c(Cl)cccc1Nc1ccccc1C(=O)O", "note": "[Tolfenamic acid]", "values": [{"measurement": "ΔTm at 40 µM", "setting": "Ec-SspA [3]; read-out: ΔTm (°C) ^1", "value": "11.6 ± 2.7", "unit": "°C"}, {"measurement": "MIC", "setting": "E. coli", "value": 1, "unit": "mM"}]}
{"molecule": "C[C@H]1[C@H](C)CC[C@]2(C(=O)O)CC[C@]3(C)C(=CC[C@@H]4[C@@]5(C)CC[C@H](O)C(C)(C)[C@@H]5CC[C@]43C)[C@H]12", "note": "[Ursolic acid]", "values": [{"measurement": "MIC", "setting": "E. coli", "value": 1, "unit": "mM"}, {"measurement": "ΔTm at 40 µM", "setting": "Ft-MglA [4]; read-out: ΔTm (°C) ^1", "value": "16.3 ± 3.2", "unit": "°C"}]}
{"molecule": "CCN(CC)CCCC(C)Nc1c2ccc(Cl)cc2nc2ccc(OC)cc12", "note": "(centres unmarked) [quinacrine]", "values": [{"measurement": "ΔTm at 40 µM", "setting": "Ec-SspA [3]; [6]", "value": "15.2 ± 1.7", "unit": "°C"}, {"measurement": "MIC", "setting": "E. coli", "value": 0.2, "unit": "mM"}, {"measurement": "ΔTm at 40 µM", "setting": "Ft-MglA [4]; [7]", "value": "2.1 ± 0.9", "unit": "°C"}]}
{"molecule": "F. tularensis SCHU S4 MglA fused to the ω subunit of E. coli RNA polymerase (pBR-mglA-ω) (natural protein)", "values": [{"measurement": "decrease of β-galactosidase activity (%) with arecoline hydrobromide", "setting": "[5]", "value": 7.8, "unit": "%"}, {"measurement": "decrease of β-galactosidase activity (%) with benzbromarone", "setting": "[5]", "value": 5.8, "unit": "%"}, {"measurement": "decrease of β-galactosidase activity (%) with benzethonium chloride", "setting": "[5]", "value": 18.9, "unit": "%"}, {"measurement": "decrease of β-galactosidase activity (%) with captopril", "setting": "[5]", "value": 16.2, "unit": "%"}, {"measurement": "decrease of β-galactosidase activity (%) with diethylcarbamazine citrate", "setting": "[5]", "value": 19.3, "unit": "%"}, {"measurement": "decrease of β-galactosidase activity (%) with dipyrone", "setting": "[5]", "value": 10.3, "unit": "%"}, {"measurement": "decrease of β-galactosidase activity (%) with flumequine", "setting": "[5]", "value": 12, "unit": "%"}, {"measurement": "decrease of β-galactosidase activity (%) with haloperidol", "setting": "[5]", "value": 18, "unit": "%"}, {"measurement": "decrease of β-galactosidase activity (%) with meclofenamic acid", "setting": "[5]", "value": 13.2, "unit": "%"}, {"measurement": "decrease of β-galactosidase activity (%) with nabumetone", "setting": "[5]", "value": 17.1, "unit": "%"}, {"measurement": "decrease of β-galactosidase activity (%) with pamoic acid", "setting": "[5]", "value": 15.5, "unit": "%"}, {"measurement": "decrease of β-galactosidase activity (%) with proparacaine hydrochloride", "setting": "[5]", "value": 9.8, "unit": "%"}, {"measurement": "decrease of β-galactosidase activity (%) with quinacrine dihydrochloride", "setting": "[5]", "value": 61, "unit": "%"}, {"measurement": "decrease of β-galactosidase activity (%) with retinoic acid", "setting": "[5]", "value": 31, "unit": "%"}, {"measurement": "decrease of β-galactosidase activity (%) with theophylline monohydrate", "setting": "[5]", "value": 6.5, "unit": "%"}, {"measurement": "decrease of β-galactosidase activity (%) with tolfenamic acid", "setting": "[5]", "value": 7.7, "unit": "%"}, {"measurement": "decrease of β-galactosidase activity (%) with ursolic acid", "setting": "[5]", "value": 16.5, "unit": "%"}]}
